Test results published in ChEMBL document CHEMBL5550197, “New melphalan derivatives for the treatment of retinoblastoma in combination with thermotherapy” (RSC Med Chem, 2024).

Columns and labels:
Y79 [1] = test: Cytotoxicity against human Y79 cells assessed as cell viability incubated for 24 hrs under 37 degreeC by PrestoBlue reagent based assay; format: functional; settings: Y79, 24 h
dsDNA [2] = test: Binding affinity to dsDNA (unknown origin) assessed as adduct formation by measuring free dsDNA incubated for 48 hrs by ESI-MS analysis; format: nucleic-acid assay; design: concentration or dose not given beside the values
RPMI-8226 = test: Cytotoxicity against human RPMI-8226 cells incubated for 48 hrs by resazurin dye based assay; format: functional, cell-based; settings: RPMI-8226, 48 h
dsDNA [3] = test: Binding affinity to dsDNA (unknown origin) assessed as adduct formation by measuring bound dsDNA incubated for 48 hrs by ESI-MS analysis; format: nucleic-acid assay
Y79 [4] = test: Potency index, ratio of melphalan IC50 to test compound IC50 for cytotoxicity against human Y79 cells assessed as cell viability incubated for 24 hrs under 37 degreeC by PrestoBlue reagent based assay; format: functional
Y79 [5] = test: Potency index, ratio of melphalan IC50 to test compound IC50 for cytotoxicity against human Y79 cells assessed as cell viability preincubated for 1 hr under 42 degreeC and further incubated under 37 degreeC for 23 hrs by PrestoBlue reagent based assay; format: functional; settings: time 24 hrs

| SMILES | Activity (dsDNA [2]) | Activity (dsDNA [3]) | also measured |
| --- | --- | --- | --- |
| N[C@@H](Cc1ccc(N(CCCl)CCCl)cc1)C(=O)OCCC(F)(F)C(F)(F)C(F)(F)C(F)(F)C(F)(F)C(F)(F)C(F)(F)C(F)(F)C(F)(F)C(F)(F)F | – | – | IC50 (Y79 [1]): > 200 µM |
| N[C@@H](Cc1ccc(N(CCCl)CCCl)cc1)C(=O)O | 99% | – | IC50 (RPMI-8226): 8.9 µM |
| N[C@@H](Cc1ccc(N(CCCl)CCCl)cc1)C(=O)OCCC(F)(F)C(F)(F)C(F)(F)C(F)(F)F | 51% | 49% | – |
| N[C@@H](Cc1ccc(N(CCCl)CCCl)cc1)C(=O)OCCC(F)(F)C(F)(F)F | 37% | 63% | – |
| Cl.N[C@@H](Cc1ccc(N(CCCl)CCCl)cc1)C(=O)OCCC(F)(F)F | 26% | 74% | Ratio IC50 (Y79 [4]): 8; Ratio IC50 (Y79 [5]): 8 |
| N[C@@H](Cc1ccc(N(CCCl)CCCl)cc1)C(=O)OCCC(F)(F)C(F)(F)C(F)(F)C(F)(F)C(F)(F)C(F)(F)C(F)(F)C(F)(F)F | 98% | – | – |
| N[C@@H](Cc1ccc(N(CCCl)CCCl)cc1)C(=O)OCCC(F)(F)C(F)(F)C(F)(F)C(F)(F)C(F)(F)C(F)(F)F | 92% | – | – |
